Data from US20240166652A1, “MODULATORS OF THE INTEGRATED STRESS PATHWAY” (Calico Life Sciences LLC, priority 2017, published 2024).
pEC50: −log10 of the molar value.

tested on: ATF4 luciferase reporter in HEK293T cells; experiment: ATF4-Luc assay (ATF4 luciferase reporter, tunicamycin-treated HEK293T cells); assay type: cell-based, human; settings: Homo sapiens, HEK-293T; HEK293T cells carrying the ATF4 luciferase reporter, 1 μg/mL tunicamycin, 7 hours

Compound	pEC50
CN(C(=O)COc1ccc(Cl)c(F)c1)C12CCC(NC(=O)COc3ccc(Cl)c(F)c3)(CC1)[C@@H](O)C2 [Compound 444, 2-(4-chloro-3-fluorophenoxy)-N-{(3S)-4-[2-(4-chloro-3-fluorophenoxy)acetamido]-3-hydroxybicyclo[2.2.2]octan-1-yl}-N-methylacetamide]	7.30 to 8.00
CC(=O)O[C@H]1CC2(NC(=O)COc3ccc(Cl)c(F)c3)CCC1(NC(=O)COc1ccc(Cl)c(F)c1)CC2 [Compound 445, (2S)-1,4-bis[2-(4-chloro-3-fluorophenoxy)acetamido]bicyclo[2.2.2]octan-2-yl acetate]	> 8.00
O=C(COc1ccc(Cl)c(F)c1)NC12CC(NC(=O)Cc3ccccc3)(C1)C2 [Compound 446, 2-(4-chloro-3-fluorophenoxy)-N-[3-(2-phenylacetamido)bicyclo[1.1.1]pentan-1-yl]acetamide]	< 5.70
O=C(COc1ccc(Cl)c(Cl)c1)NC12CC(NC(=O)Cc3ccccn3)(C1)C2 [Compound 447, 2-(3,4-dichlorophenoxy)-N-{3-[2-(pyridin-2-yl)acetamido]bicyclo[1.1.1]pentan-1-yl}acetamide]	< 5.70
O=C(COc1ccc(Cl)c(F)c1)NC12CC(NC(=O)Cc3ccccn3)(C1)C2 [Compound 448, 2-(4-chloro-3-fluorophenoxy)-N-{3-[2-(pyridin-2-yl)acetamido]bicyclo[1.1.1]pentan-1-yl}acetamide]	< 5.70
CC(=O)O[C@@H]1CC2(NCCOc3ccc(Cl)c(F)c3)CCC1(NC(=O)COc1ccc(Cl)c(F)c1)CC2 [Compound 450, (2R)-1-[2-(4-chloro-3-fluorophenoxy)acetamido]-4-{[2-(4-chloro-3-fluorophenoxy)ethyl]amino}bicyclo[2.2.2]octan-2-yl acetate]	7.30 to 8.00
O=C(COc1ccc(Cl)c(Cl)c1)NC12CC(NC(=O)NCc3cccc(F)c3)(C1)C2 [Compound 451, 2-(3,4-dichlorophenoxy)-N-[3-({[(3-fluorophenyl)methyl]carbamoyl}amino)bicyclo[1.1.1]pentan-1-yl]acetamide]	< 5.70
O=C(COc1ccc(Cl)c(F)c1)NC12CCC(NC(=O)COc3ccc(Cl)c(Cl)c3)(CC1)[C@@H](O)C2 [Compound 452, 2-(4-chloro-3-fluorophenoxy)-N-{(3S)-4-[2-(3,4-dichlorophenoxy)acetamido]-3-hydroxybicyclo[2.2.2]octan-1-yl}acetamide]	> 8.00
CC(C)(Oc1ccc(Cl)cc1)C(=O)NC12CCC(NC(=O)COc3ccc(Cl)c(F)c3)(CC1)C[C@@H]2O [Compound 453, N-{(2S)-4-[2-(4-chloro-3-fluorophenoxy)acetamido]-2-hydroxybicyclo[2.2.2]octan-1-yl}-2-(4-chlorophenoxy)-2-methylpropanamide]	7.30 to 8.00
O=C(COc1ccc(Cl)c(F)c1)NC12CCC(NC(=O)COc3ccc(Cl)cc3)(CC1)[C@@H](O)C2 [Compound 454, 2-(4-chloro-3-fluorophenoxy)-N-{(3S)-4-[2-(4-chlorophenoxy)acetamido]-3-hydroxybicyclo[2.2.2]octan-1-yl}acetamide]	> 8.00
COc1ccc(OC)c(CCC(=O)NC23CC(NC(=O)COc4ccc(Cl)c(F)c4)(C2)C3)c1 [Compound 455, N-{3-[2-(4-chloro-3-fluorophenoxy)acetamido]bicyclo[1.1.1]pentan-1-yl}-3-(2,5-dimethoxyphenyl)propanamide]	< 5.70
Cc1ccc(OCC(=O)NC23CC(NC(=O)COc4ccc(Cl)c(F)c4)(C2)C3)cc1C [Compound 456, 2-(4-chloro-3-fluorophenoxy)-N-{3-[2-(3,4-dimethylphenoxy)acetamido]bicyclo[1.1.1]pentan-1-yl}acetamide]	> 8.00
O=C(COc1ccc(Cl)c(F)c1)NC12CC(NC(=O)Cc3cccc(C(F)(F)F)c3)(C1)C2 [Compound 457, 2-(4-chloro-3-fluorophenoxy)-N-(3-{2-[3-(trifluoromethyl)phenyl]acetamido}bicyclo[1.1.1]pentan-1-yl)acetamide]	< 5.70
O=C(COc1ccc(Cl)c(F)c1)NC12CC(NC(=O)Cc3cccnc3)(C1)C2 [Compound 458, 2-(4-chloro-3-fluorophenoxy)-N-{3-[2-(pyridin-3-yl)acetamido]bicyclo[1.1.1]pentan-1-yl}acetamide]	< 5.70
O=C(COc1ccc(Cl)c(F)c1)NC12CC(NC(=O)Cc3ccncc3)(C1)C2 [Compound 459, 2-(4-chloro-3-fluorophenoxy)-N-{3-[2-(pyridin-4-yl)acetamido]bicyclo[1.1.1]pentan-1-yl}acetamide]	< 5.70
Cc1ccc(OCC(=O)NC23CC(NC(=O)COc4ccc(Cl)c(F)c4)(C2)C3)cc1 [Compound 460, 2-(4-chloro-3-fluorophenoxy)-N-{3-[2-(4-methylphenoxy)acetamido]bicyclo[1.1.1]pentan-1-yl}acetamide]	7.30 to 8.00

Compound	pEC50
COc1cccc(CCC(=O)NC23CC(NC(=O)COc4ccc(Cl)c(F)c4)(C2)C3)c1 [Compound 461, N-{3-[2-(4-chloro-3-fluorophenoxy)acetamido]bicyclo[1.1.1]pentan-1-yl}-3-(3-methoxyphenyl)propanamide]	< 5.70
O=C(COc1ccc(Cl)c(F)c1)NC12CC(NC(=O)[C@H](O)CCc3ccccc3)(C1)C2 [Compound 462, (2R)-N-{3-[2-(4-chloro-3-fluorophenoxy)acetamido]bicyclo[1.1.1]pentan-1-yl}-2-hydroxy-4-phenylbutanamide]	< 5.70
CCc1cc(C)cc(OCC(=O)NC23CCC(NC(=O)COc4ccc(Cl)c(F)c4)(CC2)[C@@H](O)C3)c1 [Compound 463, 2-(4-chloro-3-fluorophenoxy)-N-{(2S)-4-[2-(3-ethyl-5-methylphenoxy)acetamido]-2-hydroxybicyclo[2.2.2]octan-1-yl}acetamide]	< 5.70
CCOc1ccc(OCC(=O)NC23CCC(NC(=O)COc4ccc(Cl)c(F)c4)(CC2)[C@@H](O)C3)cc1 [Compound 464, 2-(4-chloro-3-fluorophenoxy)-N-{(2S)-4-[2-(4-ethoxyphenoxy)acetamido]-2-hydroxybicyclo[2.2.2]octan-1-yl}acetamide]	7.30 to 8.00
COc1cc(OCC(=O)NC23CCC(NC(=O)COc4ccc(Cl)c(F)c4)(CC2)[C@@H](O)C3)ccc1Cl [Compound 465, 2-(4-chloro-3-fluorophenoxy)-N-{(2S)-4-[2-(4-chloro-3-methoxyphenoxy)acetamido]-2-hydroxybicyclo[2.2.2]octan-1-yl}acetamide]	> 8.00
O=C(COc1cccc(C(F)(F)F)c1)NC12CCC(NC(=O)COc3ccc(Cl)c(F)c3)(CC1)[C@@H](O)C2 [Compound 466, 2-(4-chloro-3-fluorophenoxy)-N-[(2S)-2-hydroxy-4-{2-[3-(trifluoromethyl)phenoxy]acetamido}bicyclo[2.2.2]octan-1-yl]acetamide]	> 8.00
Cc1cccc(OCC(=O)NC23CCC(NC(=O)COc4ccc(Cl)c(F)c4)(CC2)[C@@H](O)C3)c1 [Compound 467, 2-(4-chloro-3-fluorophenoxy)-N-{(2S)-2-hydroxy-4-[2-(3-methylphenoxy)acetamido]bicyclo[2.2.2]octan-1-yl}acetamide]	> 8.00
O=C(COc1ccc(C(F)(F)F)cc1)NC12CCC(NC(=O)COc3ccc(Cl)c(F)c3)(CC1)[C@@H](O)C2 [Compound 468, 2-(4-chloro-3-fluorophenoxy)-N-[(2S)-2-hydroxy-4-{2-[4-(trifluoromethyl)phenoxy]acetamido}bicyclo[2.2.2]octan-1-yl]acetamide]	> 8.00
Cc1cc(OCC(=O)NC23CCC(NC(=O)COc4ccc(Cl)c(F)c4)(CC2)[C@@H](O)C3)cc(C)c1C [Compound 469, 2-(4-chloro-3-fluorophenoxy)-N-{(2S)-2-hydroxy-4-[2-(3,4,5-trimethylphenoxy)acetamido]bicyclo[2.2.2]octan-1-yl}acetamide]	< 5.70
Cc1cc(C)cc(OCC(=O)NC23CCC(NC(=O)COc4ccc(Cl)c(F)c4)(CC2)[C@@H](O)C3)c1 [Compound 470, 2-(4-chloro-3-fluorophenoxy)-N-{(2S)-4-[2-(3,5-dimethylphenoxy)acetamido]-2-hydroxybicyclo[2.2.2]octan-1-yl}acetamide]	7.30 to 8.00
Cc1ccc(OCC(=O)NC23CCC(NC(=O)COc4ccc(Cl)c(F)c4)(CC2)[C@@H](O)C3)cc1C [Compound 471, 2-(4-chloro-3-fluorophenoxy)-N-{(2S)-4-[2-(3,4-dimethylphenoxy)acetamido]-2-hydroxybicyclo[2.2.2]octan-1-yl}acetamide]	> 8.00
O=C(COc1ccc2ccccc2c1)NC12CCC(NC(=O)COc3ccc(Cl)c(F)c3)(CC1)[C@@H](O)C2 [Compound 472, 2-(4-chloro-3-fluorophenoxy)-N-[(2S)-2-hydroxy-4-{2-[(naphthalen-2-yl)oxy]acetamido}bicyclo[2.2.2]octan-1-yl]acetamide]	> 8.00
O=C(COc1ccc(OC(F)(F)F)cc1)NC12CCC(NC(=O)COc3ccc(Cl)c(F)c3)(CC1)[C@@H](O)C2 [Compound 473, 2-(4-chloro-3-fluorophenoxy)-N-[(2S)-2-hydroxy-4-{2-[4-(trifluoromethoxy)phenoxy]acetamido}bicyclo[2.2.2]octan-1-yl]acetamide]	> 8.00
CCCS(=O)(=O)c1ccc(OCC(=O)NC23CCC(NC(=O)COc4ccc(Cl)c(F)c4)(CC2)[C@@H](O)C3)cc1 [Compound 474, 2-(4-chloro-3-fluorophenoxy)-N-[(2S)-2-hydroxy-4-{2-[4-(propane-1-sulfonyl)phenoxy]acetamido}bicyclo[2.2.2]octan-1-yl]acetamide]	< 5.70
Cc1ccc(OCC(=O)NC23CCC(NC(=O)COc4ccc(Cl)c(F)c4)(CC2)[C@@H](O)C3)cc1 [Compound 475, 2-(4-chloro-3-fluorophenoxy)-N-{(2S)-2-hydroxy-4-[2-(4-methylphenoxy)acetamido]bicyclo[2.2.2]octan-1-yl}acetamide]	> 8.00
CS(=O)(=O)c1ccc(OCC(=O)NC23CCC(NC(=O)COc4ccc(Cl)c(F)c4)(CC2)[C@@H](O)C3)cc1 [Compound 476, 2-(4-chloro-3-fluorophenoxy)-N-[(2S)-2-hydroxy-4-{2-[4-(methanesulfonyl)phenoxy]acetamido}bicyclo[2.2.2]octan-1-yl] acetamide]	6.60 to 7.30
